Reference: patent publication US9073858B2, “Methods of targeted drug development” (priority 2010, dated 2015)
pIC50: −log10 of the molar value. “Also recorded” adds a separate entry of the source. Where two headings read alike, the source gives them in different places.

Tests used:
[1] = tested on: DNA fragmentation in A549 cells; experiment: DNA Fragmentation Assay (Cell Death Detection ELISA); type: cell-based; settings: for activation at 1 µM / activation at 10 µM / Emax at 1 µM / Emax at 10 µM: Homo sapiens; for activation at 1 µM / activation at 10 µM: A549, 24 h, read-out: % Increase over Background; for Emax at 1 µM / Emax at 10 µM: A549, read-out: % Increase Relative to Staurosporin; for induction of apoptosis in A549 cells (DNA fragmentation assay): 10 μM, FIG. 15
[2] = tested on: caspase 3,7 activity in A431 cells; experiment: cells; settings: for Emax at 8 µM / Emax at 16 µM: Homo sapiens, A-431, read-out: Total Apoptosis (increase in caspase 3,7 activity as percentage of the maximal response); for Ability to Synergize with Tarceva: caspase 3,7 activity, A431 cells
Description: As described below, the capsase 3,7 assay uses the Promega Caspase-Glo 3/7 assay kit (cat no. G8092).
The Caspase-Glo® 3/7 Assay is a luminescent assay that measures caspase-3 and −7 activities in purified enzyme preparations or cultures of adherent or suspension cells. The assay provides a proluminescent caspase-3/7 substrate, which contains the tetrapeptide sequence, DEVD. This substrate is cleaved to release aminoluciferin, a substrate of luciferase used in the production of light. The Caspase-Glo® 3/7 Reagent has been optimized for caspase activity, luciferase activity and cell lysis. The addition of the single Caspase-Glo® 3/7 Reagent in an “add-mix-measure” format results in cell lysis, followed by caspase cleavage of the substrate and generation of a “glow-type” luminescent signal. The Caspase-Glo® 3/7 Assay is designed for use with multiwell plate formats, making it ideal for automated high-throughput screening of caspase activity or apoptosis.
Staurosporine was used as a positive control.
For the capsase 3,7 assay, cells were incubated for 5.5 hrs at 37° C., 5% CO2. The plate was removed from the incubator and equilibrated to room temperature. After 30 min, 25 μl Caspase 3/7 detection reagent (Promega Caspase-Glo 3/7 assay kit, cat no. G8092) was added to each well. The plate was covered with tin foil and shaken on a plate shaker at speed 4 for 3 min. The plate was then incubated for an additional 60 min at room temperature. Luminescence was detected using the PolarStar plate reader.
All statistical analyses were done using GraphPad Prism.
The assay was stopped after 6 hrs and the presence of caspase was measured using the Promega Caspase-Glo® 3/7 Assay.

H1975 cells = experiment: H1975 Cell Proliferation Assay (MTT); type: cell-based; settings: Homo sapiens, NCI-H1975, 72 h, read-out: IC50 Value (μM) H1975 Cells
Experimental: (§1) Cell proliferation is determined using the MTT assay. The MTT cell proliferation assay is a colorimetric assay system which measures the reduction of a tetrazolium component (MTT) into an insoluble formazan product by the mitochondria of viable cells. After incubation of the cells with the MTT reagent, DMSO is added to solubilize the colored crystals and the samples read at a wavelength of 560 nm. The amount of color produced is directly proportional to the number of viable cells.
(§2) 3-(4,5-Dimethylthiazol-2-yl)-2,5-diphenyltetrazolium Bromide (MTT) dye (Aesar, cat no. L11939) was prepared at 5 mg/ml in PBS. To each well, 20 μl of MTT solution was added to existing media and mixed thoroughly with 5 mins of gentle shaking at room temperature. Plates were incubated at 37° C., 5% CO2 for approximately 2 hrs. After 2-3 hrs incubation, media was aspirated out and plates were patted dry. […] Plates were incubated at 37° C., 5% CO2 for 10 min and mix thoroughly with 5 mins of gentle shaking at room temperature. Plates were read on the PolarStar plate reader at 560 nm. Percent (%) inhibition was calculated as 100%−(OD560 nm experimental-blank)×100%/OD560 nm control-blank. Blank=wells+serum free media+0.5% DMSO. Experimental=wells+cells+treatment+0.5% DMSO. Control=wells+cells+0.5% DMSO. IC50 values were calculated in GraphPad Prism using non-linear regression curve fitting. All statistical analyses was done either in GraphPad Prism or Microsoft Excel.
Briefly, compounds are added to cells plated in 96-well plates. The cells are allowed to grow for 72 hours before MTT treatment. The effect of the compounds on cell proliferation is analyzed using GraphPad Prism.

A549 cells = experiment: A549 Cell Proliferation Assay (MTT); type: cell-based; settings: Homo sapiens; for IC50: A549, 72 h, read-out: IC50 Value (μM) A549 Cells
Experimental: Cell proliferation is determined using the MTT assay. The MTT cell proliferation assay is a colorimetric assay system which measures the reduction of a tetrazolium component (MTT) into an insoluble formazan product by the mitochondria of viable cells. After incubation of the cells with the MTT reagent, DMSO is added to solubilize the colored crystals and the samples read at a wavelength of 560 nm. The amount of color produced is directly proportional to the number of viable cells. […] L11939) was prepared at 5 mg/ml in PBS. […] Plates were read on the PolarStar plate reader at 560 nm. […] IC50 values were calculated in GraphPad Prism using non-linear regression curve fitting. All statistical analyses was done either in GraphPad Prism or Microsoft Excel. […] Briefly, compounds are added to cells plated in 96-well plates. The cells are allowed to grow for 72 hours before MTT treatment. The effect of the compounds on cell proliferation is analyzed using GraphPad Prism. A549 cells are a non-small cell lung cancer cell line that have wild type EGFR and p53 but have point mutations in KRAS gene which transform it into an oncogene. […] SH30071.03, lot no. ATB31500), 1% Pen Strep (Gibco, cat no. […] On day 2, working solutions of compounds at 200× were prepared. […] Plates were incubated for 72 hours before analyzing them with MTT (as described above).

HT-29 cells = experiment: HT-29 Cell Proliferation Assay (MTT); type: cell-based; settings: for IC50 / pIC50: Homo sapiens; for IC50: read-out: IC50 Value (μM) HT-29 Cells
Experimental: as §1, §2
Briefly, compounds are added to cells plated in 96-well plates. […] The effect of the compounds on cell proliferation is analyzed using GraphPad Prism.
HT-29 cells are a colon cancer cell line that is utilized to assess the ability of compounds to inhibit the proliferation of cells in tumors of the colon.
For the HT-29 cell proliferation assay, on day 1, HT-29 cells are seeded at 3,000 cells/well in 100 μl media containing 10% FBS, 1× Pen-Strep, and 1× L-Glutamine in 96 well, tissue culture-treated plates. […] Working solutions of compounds were prepared (at […] in 100% DMSO). To 200 μl media, 20 μl of a 5× compound (diluted in plain media) was added for a final DMSO concentration of 0.5%. […] On day 5, plates were analyzed for cell growth using the MTT assay.

[3] = Stability on incubation with mouse liver microsomes (MLM); type: in vitro ADME; settings: for MLM % Remaining@ 30 Min: percentage left after incubation with mouse liver microsomes for 30 minutes
Summary of the method: (§3)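 Values are percent compound remaining after 30 min incubation with mouse or human liver microsomes.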

[4] = Stability on incubation with human liver microsomes (HLM); type: in vitro ADME; settings: percentage left after incubation with human liver microsomes for 30 minutes
Summary of the method: as §3

[5] = tested on: EGF receptor-mediated cell proliferation; experiment: Combinatorial studies with known EGFR inhibitors, median effect analysis (MTT assay); settings: for pIC50: MTT assay
Experimental: Studies were initiated to evaluate the ability of various compounds disclosed herein to synergize with several compounds known to inhibit the function of the EGF receptor in a cell proliferation assay (MTT assay).
The EGFR inhibitor and AD4 compound dilutions were then mixed 1:1 in a 96 well plate. 50 μl of the mix was then added to the cell plate.
A shifting of the inhibitor curve to the left indicates an increase in the effectiveness of the AD4-compound.

[6] = Combination Index with Iressa at 90% inhibition
[7] = Combination Index with Tykerb at 90% inhibition

Oc1c(C(Nc2ccc(C(F)(F)F)cn2)c2cccc(C(F)(F)F)c2)ccc2cccnc12 (centres unmarked) [AD4-13164]
activation at 1 µM [1]: 525%
activation at 10 µM [1]: 788%
Emax at 1 µM [1]: 39%
Emax at 10 µM [1]: 58%

Cc1ccnc(NC(c2cc(Cl)cc(Cl)c2Cl)c2ccc3cccnc3c2O)c1 (centres unmarked) [AD4-13072]
Emax at 8 µM [2]: 38%
Emax at 16 µM [2]: 49%
Ability to Synergize with Tarceva [2]: +++ (0.3-0.7 Synergism)
IC50 (H1975 cells): 0.29 µM
IC50 (A549 cells): 0.15 µM

Oc1c(C(Nc2ncc(C(F)(F)F)cc2F)c2ccc(Cl)cc2Cl)ccc2cccnc12 (centres unmarked) [AD4-13165]
IC50 (HT-29 cells; HT-29, 72 h): 5 µM
stability toward liver microsome incubation ([3]; mouse and human liver microsomes (MLM, HLM)): increased stability; also recorded: good stability
MLM % Remaining@ 30 Min [3]: 100%
HLM % Remaining@ 30 Min [4]: 100%
induction of apoptosis in A549 cells (DNA fragmentation assay) [1]: induce apoptosis
IC50 (H1975 cells): 0.14 µM
IC50 (A549 cells): 0.16 µM

Cc1ccc2c(C)nc(Nc3nc(-c4ccccc4C)cc(=O)[nH]3)nc2c1 [AD4-11511]
CI @ ED90 [5, 6]: 0.93
CI @ ED90 [5, 7]: 0.87
shift in Tykerb's dose-response curve ([5]; in combination with Tykerb): leftward shift (i.e., greater potency)
pIC50 ([5]; read-out: IC50 Iressa + Compound, Iressa combined with the compound at a fixed constant ratio): 6.61
pIC50 ([5]; read-out: IC50 Tykerb + Compound, Tykerb combined with the compound at a fixed constant ratio): 6.93
MLM % Remaining@ 30 Min [3]: 6%
HLM % Remaining@ 30 Min [4]: 6%

Oc1c(C(Nc2ncc(F)cc2F)c2cc(Cl)cc(Cl)c2)ccc2cccnc12 (centres unmarked) [AD4-13176]
induction of apoptosis in A549 cells (DNA fragmentation assay) [1]: induce apoptosis

CCc1cc(Cl)cnc1NC(c1ccc(Cl)cc1)c1ccc2cccnc2c1O (centres unmarked) [AD4-13225]
activation at 1 µM [1]: 702%
activation at 10 µM [1]: 697%
Emax at 1 µM [1]: 52%
Emax at 10 µM [1]: 52%

Cc1c(Cl)cnc(NC(c2ccc(Cl)cc2Cl)c2ccc3cccnc3c2O)c1F (centres unmarked) [AD4-13199]
IC50 (HT-29 cells; HT-29, 72 h): 0.75 µM
MLM % Remaining@ 30 Min [3]: 63%
HLM % Remaining@ 30 Min [4]: 100%
activation at 1 µM [1]: 130%
activation at 10 µM [1]: 492%
Emax at 1 µM [1]: 15%
Emax at 10 µM [1]: 55%
IC50 (H1975 cells): 0.16 µM
IC50 (A549 cells): 0.12 µM

C#Cc1cccc(Nc2ncnc3cc(OCCOC)c(OCCOC)cc23)c1 [Tarceva, reference compound]
synergy with Tykerb [5]: did not produce synergistic effects
HT-29 Cell Proliferation Assay Results (IC50) (HT-29 cells): No Effect
pIC50 (HT-29 cells; HT-29, 72 h, read-out: IC50, Comparison of Incubation Times in HT-29 Cell Proliferation Assay): 4.82
pIC50 (HT-29 cells; HT-29, read-out: IC50 from dose-response curves of FIG. 11, HT-29 cells): 4.92

Cc1cccc(NC(c2ccc(C(F)(F)F)cc2)c2ccc3cccnc3c2O)n1 (centres unmarked) [AD4-10628]
CI @ ED90 [5, 6]: 0.91
CI @ ED90 [5, 7]: 0.55
synergy with Tykerb ([5]; based on CI value): significant synergy
IC50 ([5]; read-out: IC50 Iressa + Compound (nM)): 93 nM
MLM % Remaining@ 30 Min [3]: 3%
HLM % Remaining@ 30 Min [4]: 45%

Oc1c(C(Nc2cc(Cl)c(Cl)cn2)c2cc(Cl)ccc2Cl)ccc2cccnc12 (centres unmarked) [AD4-13179]
IC50 (HT-29 cells; HT-29, 72 h): 4.1 µM
induction of apoptosis in A549 cells (DNA fragmentation assay) [1]: induce apoptosis
IC50 (H1975 cells): 0.14 µM
IC50 (A549 cells): 0.14 µM

CCc1cc(Cl)cnc1NC(c1cccc(Cl)c1Cl)c1ccc2cccnc2c1O (centres unmarked) [AD4-13215]
Emax at 8 µM [2]: 20%
Emax at 16 µM [2]: 27%
Ability to Synergize with Tarceva [2]: ++ (0.7-0.85 Moderate synergism)
IC50 (HT-29 cells; HT-29, 72 h): 0.97 µM
IC50 (A549 cells): 0.16 µM

Cc1nc(NC(c2cc(Cl)ccc2Cl)c2ccc3cccnc3c2O)c(Cl)cc1Cl (centres unmarked) [AD4-13220]
Emax at 8 µM [2]: 32%
Emax at 16 µM [2]: 40%
Ability to Synergize with Tarceva [2]: + (0.85-0.9 Slight synergism)
IC50 (HT-29 cells; HT-29, 72 h): 3.3 µM
IC50 (A549 cells): 0.12 µM

Cc1cc(Cl)cnc1NC(c1cc(Cl)ccc1Cl)c1ccc2cccnc2c1O (centres unmarked) [AD4-13137]
IC50 (HT-29 cells; HT-29, 72 h): 0.78 µM
activation at 1 µM [1]: 182%
activation at 10 µM [1]: 628%
Emax at 1 µM [1]: 18%
Emax at 10 µM [1]: 55%
IC50 (H1975 cells): 0.12 µM
IC50 (A549 cells): 0.16 µM

Cc1cc(NC(c2ccc(Cl)c(C(F)(F)F)c2)c2ccc3cccnc3c2O)ncc1Cl (centres unmarked) [AD4-13108]
IC50 (HT-29 cells; HT-29, 72 h): 3.3 µM
MLM % Remaining@ 30 Min [3]: 25%
HLM % Remaining@ 30 Min [4]: 93%
IC50 (H1975 cells): 0.3 µM
IC50 (A549 cells): 0.14 µM

Oc1c(C(Nc2cc(Cl)c(Cl)cn2)c2ccc(Cl)cc2Cl)ccc2cccnc12 (centres unmarked) [AD4-13178]
IC50 (HT-29 cells; HT-29, 72 h): 0.79 µM
MLM % Remaining@ 30 Min [3]: 83%
HLM % Remaining@ 30 Min [4]: 100%
apoptotic activity ([1]; Caspase, DNA Fragmentation, Annexin-V): increased apoptotic activity
IC50 (H1975 cells): 0.19 µM
IC50 (A549 cells): 0.084 µM
pIC50 (A549 cells; A549, read-out: IC50, cell proliferation in A549 or H1975 cells): ≥ 7.00
